From patent US6303366A, “Biodegradation of the gasoline oxygenates” (Envirogen, Inc., priority 1999, dated 2001)

Key:
M. vaccae JOB5 = experiment: Gas chromatography degradation assay, washed cells; type: cell-based, Mycobacterium vaccae; details: for % Degraded: 30 mg/l, 24 hours, OD550 1.0
Procedure: (§1) Propane-oxidizing microorganisms were grown as described above on either propane, isopropanol, ethanol or acetone, to a cell density of OD550≥0.5. The cells were then collected by centrifugation, washed with BSM, and suspended to an OD550 of 1.0. […] The vials were sealed with Teflon-lined septa and crimp seals and incubated with shaking (250 rpm) at 30° C. for at least 24 hr. Control samples were prepared by adding 50 μl of 10 mM HgCl2 to replicate vials. HgCl2 killed the microorganisms present in the vials allowing these vials to serve as controls. At pre-determined time points, 50 μl of 10 mM HgCl2 were added to the incubating sample to stop the reaction or a sub-sample of the incubating sample was removed for analysis. Degradation of MTBE, ETBE or tert-butyl alcohol (TBA) was measured by gas chromatography.
(§2) Gas chromatography was performed by first removing cells from the samples by centrifugation of the sample vial or the sub-sample. A pre-sealed 2-ml autosampler vial was partially evacuated by inserting a syringe needle through the septa and removing 500 μl of air. Five hundred μl of the clear supernatant fraction of the cell culture were then injected into the vial. The samples were then analyzed by injecting 1 μl of the sample directly into a Varians Model 3400 gas chromatograph equipped with a 30 m Vocol capillary column (Supelco) and a flame ionization detector. The column, injector, and detector were maintained isocratically at 80° C., 200° C., and 225° C., respectively. Standard curves of each compound were generated with aqueous standards of 10 ppm, 25 ppm, 50 ppm, and 100 ppm.

ENV420 = experiment: Gas chromatography degradation assay, washed cells; type: cell-based; details: 30 mg/l, 24 hours, OD550 1.0
Procedure: as §1, §2

ENV425 [1] = experiment: Gas chromatography degradation assay, washed cells; type: cell-based, Nocardia; details: 30 mg/l, 24 hours, OD550 1.0
Procedure: as §1, §2

ENV425 [2] = experiment: Field-scale membrane bioreactor treating MTBE-contaminated groundwater; design: species or system Nocardia; details: for % Removed: continuous operation
Source text: Propane oxidizing bacteria were deployed in a field-scale membrane bioreactor (MBR) system to treat MTBE-contaminated groundwater at an oil refinery. An MBR is a type of suspended growth reactor.
The MBR system used in the present example consisted of a 1000-gallon tank equipped with a variable speed mixer, an air diffuser capable of providing up to 600 ft^3 of air per hour, an automated pH controller, and nutrient and caustic feed systems. Soda ash was used to control pH, and a soluble fertilizer, in this case fish oil emulsion, was used as a nutrient. (Other types of soluble agricultural fertilizer can be used to supply nutrients.) The weight ratio of the nutrient comprised approximately 100 parts carbon:10 parts nitrogen:1 part phosphate. The fertilizer was added continuously to the influent contaminant stream by using a LMI model A771-152S chemical metering pump. The liquid level in the reactor was controlled by using two Dwyer model 603-A level transmitters set to maintain a reactor liquid volume of from 700 to 900 gallons.
The pH was monitored and controlled by using a Rosemount model 1055APH pH analyzer/controller and a Rosemount model 385-2-8-54 pH sensor that measured pH in the reactor. Caustic was added to the influent feed line by using an LMI model A771-152S chemical metering pump. Effluent from the reactor was passed over dual ultrafiltration membranes (Rhone Poulenc model SC37/KO9; 17.22 ft^2 of membrane surface) connected in series, then into a proof tank and then a holding tank prior to discharge into the plant's sewer system.
Operation of the reactor system was initiated by adding 225 gallons of water to the reactor and then adding concentrated BSM solution (see above) to the reactor to create a liquid concentration of 1×BSM. Twenty liters of frozen propane-grown ENV425 that had been grown in a laboratory fermentor in BSM medium with propane as a sole source of carbon and energy was frozen prior to shipment, then thawed and added directly to the water in the reactor. […] After addition to the reactor, the ENV425 was mixed well until dispersed. Then, 1.1 L of isopropanol were added while the reactor was mixing. The reactor was operated for 1.5 days until the culture became turbid. The reactor volume was then increased to 800 gallons, additional BSM was added to a final concentration of 1×BSM and an additional 3.8 L of isopropanol were added.
This initial operation was termed the "batch phase" and was used to ensure equilibration of the reactor prior to initiating continuous feed operation.
Reactor effluent was passed over the ultrafiltration membranes and retenate, containing the propane-oxidizing bacteria, was returned to the reactor. Filtrate was passed to the proof tank, and a portion of the filtrate was pumped back into the reactor to maintain an appropriate liquid volume. This was done because the flux through the membrane (40 gal./day/ft^2 of membrane) was greater than the feed rate to the reactor. Some of the return liquid passed through a spray nozzle at the top of the reactor to control reactor foaming. […] Additionally, periodic samples of the reactor headspace were sampled to estimate MTBE stripping in the reactor.
Isopropanol was used to rapidly increase biomass in the reactor and to maintain high levels of activity by the propane-oxidizing bacteria.

[3] = rat model studies; oral; cited from earlier work
Acetobacterium woodii = details: anaerobic; cited from earlier work
Eubacterium limosum = details: anaerobic; cited from earlier work

COC(C)(C)C [MTBE, methyl-tert-butyl ether]
% Degraded (M. vaccae JOB5; grown on isopropanol): 93%
% Degraded (M. vaccae JOB5; grown on propane): 100%
degraded % of the added MTBE (M. vaccae JOB5; propane-grown, 518 μM (46 ppm) MTBE, within 24 hr): 100%
% Degraded (ENV420; grown on ethanol): 86%
% Degraded (ENV420; grown on propane): 50%
% Degraded (ENV425 [1]; grown on isopropanol): 71%
% Degraded (ENV425 [1]; grown on propane): 67%
MTBE Loss % (volatilization) (ENV425 [2]; 3/7): 9.6%
MTBE Loss % (volatilization) (ENV425 [2]; 3/25): 0.9%
MTBE Loss % (volatilization) (ENV425 [2]; 4/1): 6.8%
MTBE Loss % (volatilization) (ENV425 [2]; 4/8): 4.6%
MTBE Loss % (volatilization) (ENV425 [2]; 4/15): 2.1%
MTBE Loss % (volatilization) (ENV425 [2]; Averages): 4.5%
% Removed (ENV425 [2]; 1/29, T-101 MTBE 100 mg/l): 96.4%
% Removed (ENV425 [2]; 2/2, T-101 MTBE 250 mg/l): 97.9%
% Removed (ENV425 [2]; 2/12, T-101 MTBE 240 mg/l): 91.7%
% Removed (ENV425 [2]; 2/16, T-101 MTBE 200 mg/l): 95.3%
% Removed (ENV425 [2]; 2/19, T-101 MTBE 280 mg/l): 96.1%
% Removed (ENV425 [2]; 2/26, T-101 MTBE 410 mg/l): 99.6%
% Removed (ENV425 [2]; 3/1, T-101 MTBE 780 mg/l): 96.9%
% Removed (ENV425 [2]; 3/4, T-101 MTBE 680 mg/l): 96.5%
% Removed (ENV425 [2]; 3/7, T-101 MTBE 770 mg/l): 96.1%
% Removed (ENV425 [2]; 3/11, T-101 MTBE 2000 mg/l): 97.0%
% Removed (ENV425 [2]; 3/14, T-101 MTBE 1100 mg/l): 92.0%
% Removed (ENV425 [2]; 3/18, T-101 MTBE 1900 mg/l): 99.5%
% Removed (ENV425 [2]; 3/21, T-101 MTBE 1600 mg/l): 92.5%
% Removed (ENV425 [2]; 3/25, T-101 MTBE 1590 mg/l): 97.0%
% Removed (ENV425 [2]; 3/28, T-101 MTBE 2000 mg/l): 95.4%
% Removed (ENV425 [2]; 4/1, T-101 MTBE 2200 mg/l): 96.8%
% Removed (ENV425 [2]; 4/4, T-101 MTBE 2400 mg/l): 98.0%
% Removed (ENV425 [2]; 4/8, T-101 MTBE 1700 mg/l): 94.6%
% Removed (ENV425 [2]; Avg., T-101 MTBE 1083 mg/l): 96.2%
Loss of MTBE caused by stripping/volatilization, averaged (ENV425 [2]; during the demonstration): 4.5%
influent MTBE degraded (ENV425 [2]; field and laboratory testing, hydraulic retention time 2.5 to 3.3 days): > 90%
MTBE removal (ENV425 [2]; throughout the demonstration, MTBE 40 mg/L to >2000 mg/L): Greater than 90%
no-observable-adverse-effect-level (NOAEL) [3]: 100 mg/kg/day
degradation by resting cells (Acetobacterium woodii): not degraded
degradation by resting cells (Eubacterium limosum): not degraded
